Laboratory results published in patent US12337049B2, “Method for whitening skin using composition for skin whitening” (AMOREPACIFIC CORPORATION, priority 2021, dated 2025).

Tests used:
Type in all cases: cell-based
[1] = tested on: melanin-producing enzyme (tyrosinase, TRP2) in normal human melanocytes; experiment: Increase in protein expression of melanin-producing enzyme (tyrosinase, TRP2) by pigmentation inducer (IBMX); conditions: 100 μM IBMX, 0.001-100 nM, 4 days, FIGS. 7 to 9
Description: (§1) Normal human melanocytes are placed on a 6-well plate, and the next day, the medium is changed to a PMA-free melanocyte medium. At this time, they are treated with each composition including the compound represented by Chemical Formula 1-1 (Cayman chemical) in an amount of 0 nM, 0.001 nM, 0.01 nM, 0.1 nM, 1 nM, 10 nM, and 100 nM, respectively (based on the total amount of the composition) along with 100 μM pigmentation inducer (IBMX). After culturing for 4 days, the cells are broken using a lysis buffer in each well and then the proteins are separated. Subsequently, the separated proteins are measured with respect to relative protein expression levels by using a specific antibody for TRP2 (tyrosinase related protein 2), which is a melanin-producing enzyme.

[2] = tested on: melanin-producing enzymes (tyrosinase, TRP2) in normal human melanocytes; experiment: Protein expression of melanin-producing enzymes (tyrosinase, TRP2) in normal human melanocytes without inducer; conditions: no inducer, 0.001-100 nM, 4 days
Description: as §1, with “to a […] melanocyte medium.” for “to a PMA-free melanocyte medium.”, “of the composition). After culturing” for “of the composition) along with 100 μM pigmentation inducer (IBMX). After culturing”, “antibody for tyrosinase which is a melanin-producing enzyme from, TRP2 (tyrosinase” for “antibody for TRP2 (tyrosinase”, “related protein 2).” for “related protein 2), which is a melanin-producing enzyme.”

[3] = tested on: melanin-producing enzymes (TRP1, TRP2) in normal human melanocytes; experiment: Increase in protein expression of melanin-producing enzymes (TRP1, TRP2) by C. acnes; conditions: 10^7 CFU/ml live C. acnes, 1 nM to 100 nM, 2 days, FIGS. 11 and 12
Description: Cutibacterium acnes (C. acnes, ATCC 6919) are inoculated in a BHI medium and cultured at 37° C. under anaerobic conditions for 72 hours to 96 hours, and then, the medium is collected. The collected medium is centrifuged (4° C., 10 minutes at 5,000×g), precipitating the bacteria. The precipitated bacteria are twice washed with phosphate-buffered saline (PBS) and treated up to a final concentration of 10^10 CFU/ml, preparing a live C. acnes stock, and the live C. acnes stock is cryopreserved at −80° C. Normal human melanocytes are placed on 6-well plates, and the next day, the medium is changed to a PMA-free melanocyte medium. Herein, 10^4, 10^5, 10^6, and 10^7 CFU/ml of live C. acnes are treated. After culturing for 2 days, the cells broken by using a lysis buffer in each well to separate proteins. The separated proteins are measured with respect to relative protein expression levels by using a specific antibody for TRP1 (tyrosinase related protein 1) and TRP2 (tyrosinase related protein 2), which are melanin-producing enzymes.
Normal human melanocytes are placed on 6-well plates, and the next day, the medium is changed to a PMA-free melanocyte medium. […] The separated proteins are measured with respect to relative protein expression levels by using a specific antibody for TRP1 (tyrosinase related protein 1) and TRP2 (tyrosinase related protein 2), which are melanin-producing enzymes.

[4] = tested on: melanin-producing enzyme (tyrosinase, TRP2) in normal human melanocytes; experiment: Increase in protein expression of melanin-producing enzyme (tyrosinase, TRP2) by pigmentation inducer (α-MSH); conditions: 500 nM α-MSH, 0.001-100 nM, 4 days, FIGS. 4 to 6
Description: as §1, with “500 nM” for “100 μM”, “(α-MSH).” for “(IBMX).”

increase in protein expression of the melanin-producing enzyme (tyrosinase, TRP2) by IBMX [1]: effectively inhibited
increase in the protein expression of the melanin-producing enzyme (tyrosinase, TRP2) ([2]; antibody detection vs GAPDH, FIGS. 1 to 3): effectively inhibited
increase in protein expression of the melanin-producing enzyme (TRP1, TRP2) by C. acnes [3]: effectively inhibited
increase in protein expression of the melanin-producing enzyme (tyrosinase, TRP2) by α-MSH [4]: effectively inhibited
Structure (SMILES): CC/C=C\C[C@H](O)/C=C/C=C\C/C=C\C=C\[C@@H](O)C/C=C\CCC(=O)O [Chemical Formula 1-1]
increase in protein expression of the tyrosinase ([2]; concentration dependence): effectively inhibited depending on a concentration
